Assay results: article PMC6544628, “Plasmodium pseudo-Tyrosine Kinase-like binds PP1 and SERA5 and is exported to host erythrocytes” (Scientific Reports, 2019)

Biological target: T1, pTKL_KD_WT (PfpTKL kinase domain) (Plasmodium falciparum, UniProt Q8IIT5)
T1 construct: gene pTKL
Conditions: labelled compound (ATP immobilised on agarose); protein dialyzed against PBS with 1 mM DTT and 1 mM EDTA

T1 sequence (Q8IIT5 1098-1501): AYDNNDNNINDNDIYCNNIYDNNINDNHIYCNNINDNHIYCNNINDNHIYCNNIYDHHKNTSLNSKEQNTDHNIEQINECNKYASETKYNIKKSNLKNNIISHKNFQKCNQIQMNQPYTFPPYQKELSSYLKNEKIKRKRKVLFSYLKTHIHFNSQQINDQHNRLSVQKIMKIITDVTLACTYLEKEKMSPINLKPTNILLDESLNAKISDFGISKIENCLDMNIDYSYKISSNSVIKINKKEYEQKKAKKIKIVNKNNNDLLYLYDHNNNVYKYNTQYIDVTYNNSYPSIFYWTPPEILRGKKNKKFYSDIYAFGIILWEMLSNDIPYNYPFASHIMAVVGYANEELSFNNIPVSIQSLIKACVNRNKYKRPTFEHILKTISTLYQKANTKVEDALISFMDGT

Structure (SMILES): Nc1ncnc2c1ncn2[C@@H]1O[C@H](COP(=O)(O)OP(=O)(O)OP(=O)(O)O)[C@@H](O)[C@H]1O [ATP]
- ATP-agarose bead pull-down, anti-His6 western blot: The PfpTKL pseudo-KD was able to bind ATP but did not display any kinase activity
